Assay results: the NIST ThermoML archive (doi:10.1016/j.jct.2012.05.006)

Settings: 101.33 kPa, Liquid, Vibrating tube method

CCCCCCCC[n+]1ccn(C)c1.N#C[S-] [1-methyl-3-octyl-1H-imidazolium thiocyanate]
Settings	mass density [kg/m3]
288.15 K	1014
293.15 K	1011.1
298.15 K	1008.3
303.15 K	1005.4
308.15 K	1002.6
313.15 K	999.7
318.15 K	996.7
323.15 K	994.1
328.15 K	991.3
333.15 K	988.4
338.15 K	985.6
343.15 K	982.9
